Experimental data reported in US10202604B2, “Methods of using microRNA-141” (Stemirna Therapeutics Co., Ltd., priority 2016, dated 2019).

Key:
CD44+ Du145 cells [1] = experiment: In vivo tumor regeneration assay; set-up: species or system NOD/SCID mice; conditions: enforced miR-141 expression; 100,000 cells per injection
Method: (§1) Average % of CD44^+ cells (as determined by flow analysis; n=3-5) is indicated for each cell type (UD, undetectable). […] Purified CD44^+ Du145 cells were transfected with NC or miR-141 oligos (30 nM, 48 h) and then plated for clonal (1D & 1E) and sphere (1F) assays. Bars represent mean±SD. *, P<0.05; **, P<0.01. […] Shown are tumor images, cell numbers injected (100,000 cells per injection for all models), site of injection (s.c, subcutaneously) and days (d) when tumors were harvested. Tumor weight and incidences with corresponding P values are also indicated. ns, not significant. […] Purified CD44^+ HPCa202 cells were infected with Lenti-ctl or Lenti-141 (MOI 10, 72 h) and plated for clonal assay (1K) or sphere assays in Matrigel (1L & 1M). For 1st generation (1°) sphere assays, 1,000 cells per well were plated in triplicate for each group in 12-well plate and results scored in 11 days. For 2nd generation (2°), the 1° spheres were harvested, digested with Collagenase and Trypsin into single cells, 1,000 cells/well were plated, and results scored in 10 days. Quantification of the colonies was plotted (1 L; **P<0.01).
(§2) Du145, LNCaP, PC3, PPC-1, VCaP cells were obtained from […] and cultured in RPMI-1640 (Life Technologies, Carlsbad, Calif.) plus 7% fetal bovine serum (FBS) with the exception of VCaP, which were cultured in Dulbecco's Modified Eagles Medium (DMEM, Life Technologies) supplemented with 15% fetal bovine serum. Human xenograft prostate tumors, LAPC9 [bone metastasis; positive for androgen receptor (AR) and prostate-specific antigen (PSA)], LAPC4 (lymph node metastasis; AR+ and PSA+), and Du145 ([…]; AR− and PSA−) were maintained in NOD/SCID mice. These cell and xenograft lines, which have been routinely utilized (13, 14, 18, 20, 21, 23, 25, 33) and authenticated by institutional CCSG Cell Line Characterization Core using short tandem repeat (STR) analysis and checked to be free of mycoplasma contamination using the Agilent (Santa Clara, Calif.) MycoSensor QPCR Assay Kit (cat.#302107). NOD/SCID mice were produced mostly from breeding colonies with occasional purchases from the Jackson Laboratories and maintained in standard conditions according to the Institutional Guidelines. All animal experiments were approved by Institutional Animal Care and Use Committee.
(§3) As the CD44^+ prostate cancer cells are prominently devoid of miR-141, its expression in CD44^+ prostate cancer cells was restored and then cancer stem cell assays including stringent clonal (holoclone) and single cell-derived sphere-formation assays (13, 14, 23, 25, 33) were performed. […]

bulk Du145 cells = experiment: In vivo tumor regeneration assay; set-up: species or system NOD/SCID mice; conditions: miR-141 over-expression in bulk cells; 100,000 cells per injection
Method: as §1, §2, §3

PPC-1 cells = experiment: In vivo tumor regeneration assay; set-up: species or system NOD/SCID mice; conditions: miR-141 over-expression in bulk cells; 100,000 cells per injection
Method: as §1, §2, §3

CD44+ LAPC9 cells = experiment: In vivo tumor regeneration assay; set-up: species or system NOD/SCID mice; conditions: enforced miR-141 expression; 100,000 cells per injection
Method: as §1, §2, §3

CD44+ Du145 cells [2] = experiment: Clonal and sphere formation assays; type: cell-based, human; conditions: miR-141 vs NC oligos, 30 nM, 48 h transfection
Method: Average % of CD44^+ cells (as determined by flow analysis; n=3-5) is indicated for each cell type (UD, undetectable). […] Purified CD44^+ Du145 cells were transfected with NC or miR-141 oligos (30 nM, 48 h) and then plated for clonal (1D & 1E) and sphere (1F) assays. Bars represent mean±SD. *, P<0.05; **, P<0.01. […] Shown are tumor images, cell numbers injected (100,000 cells per injection for all models), site of injection (s.c, subcutaneously) and days (d) when tumors were harvested. Tumor weight and incidences with corresponding P values are also indicated. ns, not significant. […] For 1st generation (1°) sphere assays, 1,000 cells per well were plated in triplicate for each group in 12-well plate and results scored in 11 days. For 2nd generation (2°), the 1° spheres were harvested, digested with Collagenase and Trypsin into single cells, 1,000 cells/well were plated, and results scored in 10 days. Quantification of the colonies was plotted (1 L; **P<0.01). […]
For clonal assays, cultured prostate cancer cells or human prostate cancer cells freshly purified from patient primary tumors were plated at a clonal density (i.e., 100 cells/well) in a 6-well plate. The number of holoclones (33) was counted several days later. […] Floating spheres that arose in 1-2 weeks were counted. […]

With “miR-141: miR-141 mirVana mimics (Life Technologies); microRNA-141 oligonucleotide may have SEQ ID NO: 1; in some experiments over-expressed by lentiviral vectors (UAACACUGUCUGGUAAAGAUGG; listed as RNA, further chemistry not given here) [miR-141 mirVana mimics (Life Technologies); in some experiments over-expressed by lentiviral vectors]” as the substance, how does the “tumor growth and/or tumor incidence” value (CD44+ Du145 cells [1]) read?
The value was “significantly suppressed tumor growth and/or reduced tumor incidence”.

What about the tumor regeneration (bulk Du145 cells) of the same substance?
The tumor regeneration was “suppressed tumor regeneration”.

What about the tumor regeneration (PPC-1 cells) of the same substance?
The tumor regeneration was “suppressed tumor regeneration”.

And the “tumor growth and/or tumor incidence” value (CD44+ LAPC9 cells)?
Its value is “significantly suppressed tumor growth and/or reduced tumor incidence”.

And the clonogenic capacity (CD44+ Du145 cells [2])?
Its clonogenic capacity is “inhibited”.

And the sphere-forming capacity (CD44+ Du145 cells [2])?
Its sphere-forming capacity is “inhibited”.
